Data published in patent US7932270B2 (Cytokinetics, Inc., priority 2006, dated 2011).

target: T1, chicken gizzard smooth muscle myosin subfragment-1 chemically crosslinked to cardiac or skeletal actin (Gallus gallus, UniProt P10587); assay: Smooth muscle myosin ATPase dose response assay (pyruvate kinase/horseradish peroxidase/pyruvate oxidase-coupled, amplex red fluorescence); type: biochemical; details: read-out: IC50 Arithmetic Mean
T1 construct: chicken gizzard smooth muscle myosin subfragment-1; from tissue; host or cells: chicken gizzard
T1 sequence (P02607 2-151): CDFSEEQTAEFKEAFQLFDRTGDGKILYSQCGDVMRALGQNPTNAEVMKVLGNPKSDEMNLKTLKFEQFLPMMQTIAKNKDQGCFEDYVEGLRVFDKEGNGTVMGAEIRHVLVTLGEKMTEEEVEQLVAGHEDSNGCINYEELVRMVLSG
T1 sequence (P10587 84-789): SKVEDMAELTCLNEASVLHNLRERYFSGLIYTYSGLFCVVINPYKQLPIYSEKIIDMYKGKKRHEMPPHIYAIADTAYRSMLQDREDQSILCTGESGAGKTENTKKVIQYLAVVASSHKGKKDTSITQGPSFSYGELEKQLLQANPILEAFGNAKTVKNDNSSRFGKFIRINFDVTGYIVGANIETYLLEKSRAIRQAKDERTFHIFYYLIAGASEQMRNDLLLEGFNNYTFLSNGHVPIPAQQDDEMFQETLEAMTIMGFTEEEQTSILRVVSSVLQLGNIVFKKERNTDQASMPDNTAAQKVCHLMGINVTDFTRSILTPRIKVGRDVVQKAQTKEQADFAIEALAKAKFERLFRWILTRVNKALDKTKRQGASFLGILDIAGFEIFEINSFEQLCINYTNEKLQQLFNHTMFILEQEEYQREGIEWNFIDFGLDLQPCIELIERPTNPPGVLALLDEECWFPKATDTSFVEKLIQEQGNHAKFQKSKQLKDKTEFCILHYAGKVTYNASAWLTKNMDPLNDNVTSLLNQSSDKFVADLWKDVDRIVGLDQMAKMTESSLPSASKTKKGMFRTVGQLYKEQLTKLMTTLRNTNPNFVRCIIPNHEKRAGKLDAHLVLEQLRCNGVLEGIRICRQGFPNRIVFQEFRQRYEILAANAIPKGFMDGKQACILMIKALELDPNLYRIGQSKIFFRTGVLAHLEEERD
Outline: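 Amplex red fluorescence (480 nm excitation, 615 nm emission) tracked ATP hydrolysis by smooth muscle S1 crosslinked to actin with carbodiimide/N-hydroxysuccinimide. Reactions contained 0.15 mM ATP and 100 mM KCl at pH 7.00, 22° C. IC50 came from a four-parameter logistic fit.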

**Q.** How did the IC50 turn out when N#Cc1ccccc1-c1ccc(C(=O)NCc2cccnc2)c(NCCc2cc(F)cc(F)c2)n1 [(2-{[2-(3,5-difluorophenyl)ethyl]amino}-6-(2-cyanophenyl)(3-pyridyl))-N-(3-pyridylmethyl)carboxamide] was run?
**A.** 41 nM

**Q.** How did the IC50 turn out when O=C(NCc1cccnc1)c1ccc(-c2cccs2)nc1NCCc1cc(F)cc(F)c1 [(2-{[2-(3,5-difluorophenyl)ethyl]amino}-6-(2-thienyl)(3-pyridyl))-N-(3-pyridylmethyl)carboxamide] was run?
**A.** 97 nM

**Q.** Which IC50 does the source give for O=C(NCc1cccnc1)c1ccc(-c2ccsc2)nc1NCCc1cc(F)cc(F)c1 [(2-{[2-(3,5-difluorophenyl)ethyl]amino}-6-(3-thienyl)(3-pyridyl))-N-(3-pyridylmethyl)carboxamide] here?
**A.** 40 nM

**Q.** With O=C(NCc1cccnc1)c1ccc(-c2ccc(F)cc2)nc1NCCc1cc(F)cc(F)c1 [(2-{[2-(3,5-difluorophenyl)ethyl]amino}-6-(4-fluorophenyl)(3-pyridyl))-N-(3-pyridylmethyl)carboxamide] as the molecule, how does the IC50 read?
**A.** 138 nM

**Q.** How did the IC50 turn out when Cc1csc(-c2ccc(C(=O)NCc3cccnc3)c(NCCc3cc(F)cc(F)c3)n2)c1 [(2-{[2-(3,5-difluorophenyl)ethyl]amino}-6-(4-methyl(2-thienyl))(3-pyridyl))-N-(3-pyridylmethyl)carboxamide] was run?
**A.** 119 nM

**Q.** Which IC50 does the source give for O=C(NCc1cccnc1)c1ccc(-c2ccccc2)nc1NCCc1cc(F)cc(F)c1 [(2-{[2-(3,5-difluorophenyl)ethyl]amino}-6-phenyl(3-pyridyl))-N-(3-pyridylmethyl)carboxamide] here?
**A.** 55 nM

**Q.** Which IC50 does the source give for Cc1n[nH]c(C)c1CCNc1nc(-c2ccccc2)ccc1C(=O)NCc1cccnc1 [(2-{[2-(3,5-dimethylpyrazol-4-yl)ethyl]amino}-6-phenyl(3-pyridyl))-N-(3-pyridylmethyl)carboxamide] here?
**A.** 5940 nM

**Q.** Which IC50 does the source give for Cc1cc(C)n(CCNc2nc(-c3ccccc3)ccc2C(=O)NCc2cccnc2)n1 [(2-{[2-(3,5-dimethylpyrazolyl)ethyl]amino}-6-phenyl(3-pyridyl))-N-(3-pyridylmethyl)carboxamide] here?
**A.** 6830 nM

**Q.** How did the IC50 turn out when O=C(NCc1cccnc1)c1ccc(-c2ccccc2)nc1NCCc1cccc(Cl)c1 [(2-{[2-(3-chlorophenyl)ethyl]amino}-6-phenyl(3-pyridyl))-N-(3-pyridylmethyl)carboxamide] was run?
**A.** 349 nM

**Q.** N#Cc1cccc(CCNc2nc(-c3ccccc3)ccc2C(=O)NCc2cccnc2)c1 [(2-{[2-(3-cyanophenyl)ethyl]amino}-6-phenyl(3-pyridyl))-N-(3-pyridylmethyl)carboxamide] was tested. Which IC50 did it give?
**A.** 4650 nM

**Q.** O=C(NCc1cccnc1)c1ccc(-c2ccccc2)nc1NCCc1ncccc1F [(2-{[2-(3-fluoro(2-pyridyl))ethyl]amino}-6-phenyl(3-pyridyl))-N-(3-pyridylmethyl)carboxamide] was tested. Which IC50 did it give?
**A.** 1480 nM

**Q.** O=C(NCc1cccnc1)c1ccc(-c2ccccc2)nc1NCC(O)c1cccc(F)c1 (centres unmarked) [(2-{[2-(3-fluorophenyl)-2-hydroxyethyl]amino}-6-phenyl(3-pyridyl))-N-(3-pyridylmethyl)carboxamide] was tested. Which IC50 did it give?
**A.** 559 nM

**Q.** Which IC50 does the source give for O=C(NCc1cccnc1)c1c(CO)cc(-c2ccccc2)nc1NCCc1cccc(F)c1 [(2-{[2-(3-fluorophenyl)ethyl]amino}-4-(hydroxymethyl)-6-phenyl(3-pyridyl))-N-(3-pyridylmethyl)carboxamide] here?
**A.** 59100 nM

**Q.** How did the IC50 turn out when O=C(NCc1cccnc1)c1cc(CO)c(-c2ccccc2)nc1NCCc1cccc(F)c1 [(2-{[2-(3-fluorophenyl)ethyl]amino}-5-(hydroxymethyl)-6-phenyl(3-pyridyl))-N-(3-pyridylmethyl)carboxamide] was run?
**A.** 625 nM

**Q.** For O=C(NCc1cccnc1)c1cc2c(nc1NCCc1cccc(F)c1)-c1ccccc1C2=O [(2-{[2-(3-fluorophenyl)ethyl]amino}-5-oxoindeno[3,2-b]pyridin-3-yl)-N-(3-pyridylmethyl)carboxamide], which IC50 is on record?
**A.** 88 nM

**Q.** With Cn1cc(-c2ccc(C(=O)NCc3cc[nH]n3)c(NCCc3cccc(F)c3)n2)cn1 [(2-{[2-(3-fluorophenyl)ethyl]amino}-6-(1-methylpyrazol-4-yl)(3-pyridyl))-N-(pyrazol-3-ylmethyl)carboxamide] as the molecule, how does the IC50 read?
**A.** 31 nM

**Q.** Cn1cc(-c2ccc(C(=O)NCC3CCNC3=O)c(NCCc3cccc(F)c3)n2)cn1 (centres unmarked) [(2-{[2-(3-fluorophenyl)ethyl]amino}-6-(1-methylpyrazol-4-yl)(3-pyridyl))-N-[(2-oxopyrrolidin-3-yl)methyl]carboxamide] was tested. Which IC50 did it give?
**A.** 248 nM

**Q.** How did the IC50 turn out when Cn1cc(-c2ccc(C(=O)NCC3CNCC(=O)N3)c(NCCc3cccc(F)c3)n2)cn1 (centres unmarked) [(2-{[2-(3-fluorophenyl)ethyl]amino}-6-(1-methylpyrazol-4-yl)(3-pyridyl))-N-[(6-oxopiperazin-2-yl)methyl]carboxamide] was run?
**A.** 1240 nM

**Q.** How did the IC50 turn out when Cn1cc(-c2ccc(C(=O)NCC3CCCCC(=O)N3)c(NCCc3cccc(F)c3)n2)cn1 (centres unmarked) [(2-{[2-(3-fluorophenyl)ethyl]amino}-6-(1-methylpyrazol-4-yl)(3-pyridyl))-N-[(7-oxoazaperhydroepin-2-yl)methyl]carboxamide] was run?
**A.** 603 nM

**Q.** With O=Cc1sccc1-c1ccc(C(=O)NCc2cccnc2)c(NCCc2cccc(F)c2)n1 [(2-{[2-(3-fluorophenyl)ethyl]amino}-6-(2-formyl(3-thienyl))(3-pyridyl))-N-(3-pyridylmethyl)carboxamide] as the molecule, how does the IC50 read?
**A.** 1480 nM

**Q.** How did the IC50 turn out when O=C(NCc1cccnc1)c1ccc(-c2cccs2)nc1NCCc1cccc(F)c1 [(2-{[2-(3-fluorophenyl)ethyl]amino}-6-(2-thienyl)(3-pyridyl))-N-(3-pyridylmethyl)carboxamide] was run?
**A.** 137 nM

**Q.** With O=Cc1ccsc1-c1ccc(C(=O)NCc2cccnc2)c(NCCc2cccc(F)c2)n1 [(2-{[2-(3-fluorophenyl)ethyl]amino}-6-(3-formyl(2-thienyl))(3-pyridyl))-N-(3-pyridylmethyl)carboxamide] as the molecule, how does the IC50 read?
**A.** 783 nM

**Q.** How did the IC50 turn out when O=C(NCc1cccnc1)c1ccc(-c2ccsc2)nc1NCCc1cccc(F)c1 [(2-{[2-(3-fluorophenyl)ethyl]amino}-6-(3-thienyl)(3-pyridyl))-N-(3-pyridylmethyl)carboxamide] was run?
**A.** 48 nM

**Q.** With Cc1csc(-c2ccc(C(=O)NCc3cccnc3)c(NCCc3cccc(F)c3)n2)c1 [(2-{[2-(3-fluorophenyl)ethyl]amino}-6-(4-methyl(2-thienyl))(3-pyridyl))-N-(3-pyridylmethyl)carboxamide] as the molecule, how does the IC50 read?
**A.** 148 nM

**Q.** With O=Cc1ccc(-c2ccc(C(=O)NCc3cccnc3)c(NCCc3cccc(F)c3)n2)s1 [(2-{[2-(3-fluorophenyl)ethyl]amino}-6-(5-formyl(2-thienyl))(3-pyridyl))-N-(3-pyridylmethyl)carboxamide] as the molecule, how does the IC50 read?
**A.** 52 nM

**Q.** For O=Cc1cc(-c2ccc(C(=O)NCc3cccnc3)c(NCCc3cccc(F)c3)n2)cs1 [(2-{[2-(3-fluorophenyl)ethyl]amino}-6-(5-formyl(3-thienyl))(3-pyridyl))-N-(3-pyridylmethyl)carboxamide], which IC50 is on record?
**A.** 98 nM

**Q.** For O=C(NCc1cccnc1)c1ccc(-c2cnn(CCO)c2)nc1NCCc1cccc(F)c1 [(2-{[2-(3-fluorophenyl)ethyl]amino}-6-[1-(2-hydroxyethyl)pyrazol-4-yl](3-pyridyl))-N-(3-pyridylmethyl)carboxamide], which IC50 is on record?
**A.** 972 nM

**Q.** Which IC50 does the source give for O=C(NCc1cccnc1)c1ccc(-c2ccsc2CO)nc1NCCc1cccc(F)c1 [(2-{[2-(3-fluorophenyl)ethyl]amino}-6-[2-(hydroxymethyl)(3-thienyl)](3-pyridyl))-N-(3-pyridylmethyl)carboxamide] here?
**A.** 1570 nM

**Q.** For O=C(NCc1cccnc1)c1ccc(-c2sccc2CO)nc1NCCc1cccc(F)c1 [(2-{[2-(3-fluorophenyl)ethyl]amino}-6-[3-(hydroxymethyl)(2-thienyl)](3-pyridyl))-N-(3-pyridylmethyl)carboxamide], which IC50 is on record?
**A.** 2240 nM

**Q.** With O=C(NCc1cccnc1)c1ccc(-c2cccc(CO)c2)nc1NCCc1cccc(F)c1 [(2-{[2-(3-fluorophenyl)ethyl]amino}-6-[3-(hydroxymethyl)phenyl](3-pyridyl))-N-(3-pyridylmethyl)carboxamide] as the molecule, how does the IC50 read?
**A.** 281 nM

**Q.** Which IC50 does the source give for COCc1cccc(-c2ccc(C(=O)NCc3cccnc3)c(NCCc3cccc(F)c3)n2)c1 [(2-{[2-(3-fluorophenyl)ethyl]amino}-6-[3-(methoxymethyl)phenyl](3-pyridyl))-N-(3-pyridylmethyl)carboxamide] here?
**A.** 5720 nM

**Q.** Which IC50 does the source give for CC(O)c1ccc(-c2ccc(C(=O)NCc3cccnc3)c(NCCc3cccc(F)c3)n2)s1 (centres unmarked) [(2-{[2-(3-fluorophenyl)ethyl]amino}-6-[5-(hydroxyethyl)(2-thienyl)](3-pyridyl))-N-(3-pyridylmethyl)carboxamide] here?
**A.** 415 nM

**Q.** How did the IC50 turn out when O=C(NCc1ccccn1)c1ccc(-c2ccc(CO)s2)nc1NCCc1cccc(F)c1 [(2-{[2-(3-fluorophenyl)ethyl]amino}-6-[5-(hydroxymethyl)(2-thienyl)](3-pyridyl))-N-(2-pyridylmethyl)carboxamide] was run?
**A.** 45 nM

**Q.** Which IC50 does the source give for O=C(NCc1cccnc1)c1ccc(-c2ccc(CO)s2)nc1NCCc1cccc(F)c1 [(2-{[2-(3-fluorophenyl)ethyl]amino}-6-[5-(hydroxymethyl)(2-thienyl)](3-pyridyl))-N-(3-pyridylmethyl)carboxamide] here?
**A.** 41 nM

**Q.** For O=C(NCc1cccnc1)c1ccc(-c2csc(CO)c2)nc1NCCc1cccc(F)c1 [(2-{[2-(3-fluorophenyl)ethyl]amino}-6-[5-(hydroxymethyl)(3-thienyl)](3-pyridyl))-N-(3-pyridylmethyl)carboxamide], which IC50 is on record?
**A.** 73 nM

**Q.** O=C(NCc1cccnc1)c1ccc(-c2cnoc2)nc1NCCc1cccc(F)c1 [(2-{[2-(3-fluorophenyl)ethyl]amino}-6-isoxazol-4-yl(3-pyridyl))-N-(3-pyridylmethyl)carboxamide] was tested. Which IC50 did it give?
**A.** 49800 nM

**Q.** For O=C(NCc1cccnc1)c1ccc(-c2ccccc2)nc1NCCc1cccc(F)c1 [(2-{[2-(3-fluorophenyl)ethyl]amino}-6-phenyl(3-pyridyl))-N-(3-pyridylmethyl)carboxamide], which IC50 is on record?
**A.** 63 nM

**Q.** O=C(NCc1cccnc1)c1cc(C(=O)NCc2cccnc2)c(-c2ccccc2)nc1NCCc1cccc(F)c1 [(2-{[2-(3-fluorophenyl)ethyl]amino}-6-phenyl-5-[N-(3-pyridylmethyl)carbamoyl](3-pyridyl))-N-(3-pyridylmethyl)carboxamide] was tested. Which IC50 did it give?
**A.** 56000 nM
